According to patent US4680304A, “Feed compositions containing 2-(α-pyridyl)-Δ^2 -heterocyclic compounds” (SmithKline Beckman Corporation, priority 1985, dated 1987):
Where “and” joins values, the source holds several entries; their conditions need not be identical. Equal values may be shown once.

Experiments:
Chick growth study = assay type: in vivo, broiler chicks
Procedure: 512 day old broiler chicks, selected for weight, health and sex, are housed in an environmentally controlled room with temperature at 37.7° and humidity at 40%. Chicks are fed ad libitum. Water is offered ad libitum. A corn or, preferably rye, basal ration is fed during the acclimation period (days 1 and 2). It is, then, mixed with the compound under test or used as a control on days 3-17. Either 8 or 16 chicks are used for each test or control group.

[1] = test system: fermentation in the digestive tract (swine ileal/cecal inoculum); assay: In vitro swine procedure (fistula test; incubation of filtered ileal/cecal inoculum); parameters: species or system swine (Yorkshire barrow); conditions: 5 hours at 37°

c1ccc(C2=NCCN2)nc1 [2-(2-Pyridyl)-imidazoline]
Feed/Gain (3-17 day) (Chick growth study; 50 ppm in feed): 93.0 % of Control
Weight (17 day) (Chick growth study; 50 ppm in feed): 106.2 % of Control

NC(=NO)c1ccccn1 [2-Amidoximopyridine]
Feed/Gain (3-17 day) (Chick growth study; 10 ppm in feed): 97.0 % of Control and 101.2 % of Control
Weight (17 day) (Chick growth study; 10 ppm in feed): 108.5 % of Control and 99.2 % of Control
Feed/Gain (3-17 day) (Chick growth study; 50 ppm in feed): 97.3 % of Control
Weight (17 day) (Chick growth study; 50 ppm in feed): 103.0 % of Control
LAC (L-lactic acid) ([1]; 166.67 ppm): 111 % of control values
LYS (lysine) ([1]; 166.67 ppm): 99 % of control values
VFA (total of volatile fatty acids) ([1]; 166.67 ppm): 98 % of control values

Virginiamycin [reference compound]
Feed/Gain (3-17 day) (Chick growth study; 10 ppm in feed (rye)): 96.5 % of Control
Weight (17 day) (Chick growth study; 10 ppm in feed (rye)): 107.1 % of Control
Feed/Gain (3-17 day) (Chick growth study; 10 ppm in feed): 100.4 % of Control
Weight (17 day) (Chick growth study; 10 ppm in feed): 97.7 % of Control
Feed/Gain (3-17 day) (Chick growth study; 50 ppm in feed): 88.5 % of Control
Weight (17 day) (Chick growth study; 50 ppm in feed): 127.8 % of Control
GLU (glucose) ([1]; 1.67 ppm): 131 % of control values
LYS (lysine) ([1]; 1.67 ppm): 134 % of control values
VFA (total of volatile fatty acids) ([1]; 1.67 ppm): 147 % of control values
GLU (glucose) ([1]; 16.67 ppm): 153 % of control values
LYS (lysine) ([1]; 16.67 ppm): 212 % of control values
VFA (total of volatile fatty acids) ([1]; 16.67 ppm): 85 % of control values
GLU (glucose) ([1]; 166.67 ppm): 153 % of control values
LYS (lysine) ([1]; 166.67 ppm): 289 % of control values
VFA (total of volatile fatty acids) ([1]; 166.67 ppm): 39 % of control values

Cc1nc(-c2ccccn2)no1
Feed/Gain (3-17 day) (Chick growth study; 8.5 ppm in feed): 99.2 % of Control
Weight (17 day) (Chick growth study; 8.5 ppm in feed): 102.3 % of Control
GLU (glucose) ([1]; 166.67 ppm): 113 % of control values
LYS (lysine) ([1]; 166.67 ppm): 110 % of control values

CC1(O)CC(C(N)=O)N=C1c1ncccc1O (stereo not shown) [3,4-dihydro-4-hydroxy-5-(3-hydroxy-2-pyridinyl)-4-methyl-2H-pyrrole-2-carboxamide]
Feed/Gain (3-17 day) (Chick growth study; 4.5 ppm in feed): 98.4 % of Control
Weight (17 day) (Chick growth study; 4.5 ppm in feed): 101.0 % of Control
Feed/Gain (3-17 day) (Chick growth study; 25 ppm in feed): 92.6 % of Control and 99.9 % of Control
Weight (17 day) (Chick growth study; 25 ppm in feed): 109.4 % of Control and 108.5 % of Control
LYS (lysine) ([1]; 1.67 ppm): 75 % of control values
LYS (lysine) ([1]; 16.67 ppm): 82 % of control values
VFA (total of volatile fatty acids) ([1]; 16.67 ppm): 103 % of control values
LYS (lysine) ([1]; entry (a), 166.7 ppm): 136 % of control values
VFA (total of volatile fatty acids) ([1]; entry (a), 166.7 ppm): 26 % of control values
LYS (lysine) ([1]; entry (b), 166.7 ppm): 142 % of control values
VFA (total of volatile fatty acids) ([1]; entry (b), 166.7 ppm): 43 % of control values

COC(=O)C1(C)NN=C(c2ccccn2)N1 (stereo not shown) [Methyl 5-methyl-3-(2'-pyridyl)-4,5-dihydro-1H-triazole-5-carboxylate]
Feed/Gain (3-17 day) (Chick growth study; 50 ppm in feed): 91.0 % of Control
Weight (17 day) (Chick growth study; 50 ppm in feed): 108.1 % of Control

CC1(C)NN=C(c2ccccn2)N1 [5,5-Dimethyl-3-(2'-pyridyl)-4,5-dihydro-1H-triazole]
Feed/Gain (3-17 day) (Chick growth study; 9 ppm in feed): 97.2 % of Control
Weight (17 day) (Chick growth study; 9 ppm in feed): 103.5 % of Control
Feed/Gain (3-17 day) (Chick growth study; 50 ppm in feed): 103.1 % of Control
Weight (17 day) (Chick growth study; 50 ppm in feed): 97.7 % of Control
GLU (glucose) ([1]; 166.67 ppm): 105 % of control values
